Counter-ions that a name gives are not always drawn. Bounds are passed on as bounds.

For orientation: IC50 means the concentration needed to halve the response being measured. Lower therefore signals greater potency. Broadly, the Cmax is the maximum level reached in the sampled fluid or tissue. One may read the bioavailability as dose-corrected exposure relative to a reference, in per cent.

A short description of data set [1]: Intrinsic clearance in rat liver microsomes. The data set is classed as in vitro ADME. The conditions noted are these: pH 7.4, NADPH, read-out: Rat Microsomal Stability T½. As to the method:
A 50 mM stock solution (in DMSO) was prepared for the compound. From the stock solution, a working solution of 0.5 mM was prepared by diluting the compound in DMSO. This concentration of working solution was prepared considering a final concentration of 1 uM with 0.1% DMSO. The compound (1 uL of working solution) was spiked in PBS with pH 7.4 (22 uL) at a concentration of 1 uM. Subsequently, 110 uL of 10 mM NADPH was added (as a co-factor). The sample was incubated at 37° C. for 15 min. Following this, pre-warmed rat liver microsomes (27.5 uL; final protein conc. 0.5 mg/mL) were added. The samples were then incubated at 37° C. Aliquots of samples were withdrawn at 0, 5, 15, 30, 45 and 60 min. The reaction was stopped by using chilled acetonitrile containing internal standard. The samples were centrifuged and the supernatants analysed by LC-MS/MS. The percent compound remaining at each time point was calculated with respect to that of the 0 min sample. The data were then analysed to calculate half-life. Note that control samples were run without NADPH and blank samples were prepared using DMSO without the test Compound.
For orientation: Microsomes from liver hold many membrane-bound enzymes, among them those of drug oxidation.

Data set [2] addresses T1, BRD4 BD1 (Homo sapiens, UniProt O60885).
T1 construct: HEK293 cells were transfected using NanoLuc-BRD4-BD1 or NanoLuc-BRD4-BD2 fusion vectors; host or cells: HEK293
The data set is described as follows: NanoBRET bromodomain assay, BRD4 BD1. The data set is classed as cell-based. The conditions noted are these: HEK293 cells transfected with NanoLuc-BRD4-BD1. Summed up: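 Transfected HEK293 cells expressing NanoLuc-BRD4-BD1 were incubated with 1x tracer and serially diluted compound for 2 h at 37 °C, then given Nano-Glo substrate plus extracellular NanoLuc inhibitor. Donor 450 nm and acceptor 610 nm emissions were converted to background-corrected mBU, and IC50 was derived by nonlinear regression.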
(Bioluminescence resonance energy transfer reports proximity on the nanometre scale.)

A short description of data set [3]: Mouse plasma stability. The data set is classed as in vitro ADME. The conditions noted are these: 10 μM in mouse plasma, 37° C. As to the method:
The stock solution of compound (10 or 50 mM) was prepared in DMSO. From the stock solution, a working solution of compound (500 uM) was prepared in DMSO (100%). To 735 μL of mouse plasma, 15 μL of working solution of compound was added—resulting in a final concentration of 10 μM (2% DMSO) for the compound. The sample was then incubated at 37° C. Aliquot was withdrawn at time-points—0, 15, 30, 60, 90 and 120 mins. The reaction was stopped by using chilled acetonitrile containing internal standard (IS). The samples were centrifuged and the supernatants analyzed using LC-MS/MS. The percent remaining of the compound at each time point was calculated with respect to the control sample (0 min time-point).

The target of data set [4] is T2, BRD4 BD2 (Homo sapiens, UniProt O60885).
T2 construct: HEK293 cells were transfected using NanoLuc-BRD4-BD1 or NanoLuc-BRD4-BD2 fusion vectors; host or cells: HEK293
The data set is described as follows: NanoBRET bromodomain assay, BRD4 BD2. In kind it is cell-based. The conditions noted are these: for Fold selectivity BRD4 BD1/BD2: IC50 BD1/IC50 BD2; for IC50: NanoBRET, HEK293 cells transfected with NanoLuc-BRD4-BD2. In short, it runs like this: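 HEK293 cells transfected with NanoLuc-BRD4-BD2 fusion for 20-24 h, then treated with compound plus 1x tracer for 2 h at 37° C. Donor 450 nm / acceptor 610 nm emissions converted to background-corrected mBU; IC50 by nonlinear regression; selectivity as IC50 BD1/IC50 BD2.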

The nature of data set [5]: Balb/c mouse pharmacokinetics after oral (PO) dosing. The data set is classed as in vivo. The conditions noted are these: male, plasma. The protocol: Compounds were formulated in 5% DMSO, 40% PEG-400, 55% Milli-Q water at a concentration of 0.5 mg/mL for 5 mg/kg and 3 mg/mL for 30 mg/kg PO dosing. […] Blood was sampled at various timepoints and plasma isolated. 10 μL of plasma with 5 μL of blank Balb/c mouse plasma were added to 200 μL of acetonitrile containing IS mixture. The samples were vortexed for 30 s. After centrifugation at 4 degree Celsius, 3900 rpm for 15 min, the supernatant was diluted 3 times with water. 20 μL of diluted supernatant was injected into the LC/MS/MS system for quantitative analysis and concentration of analyte determined by comparison with matrix matched standard curve. WinNonlin (Phoenix™, version 8.3) or other similar software was used for pharmacokinetic calculations.

Consider `Cc1cc(-c2cc3c(-c4cc(=O)n(C)cc4Oc4c(C)cccc4C)cn(C)c(=O)c3[nH]2)n(C)n1` [Example 7, 2-(1,3-dimethyl-1H-pyrazol-5-yl)-4-(5-(2,6-dimethylphenoxy)-1-methyl-2-oxo-1,2-dihydropyridin-4-yl)-6-methyl-1,6-dihydro-7H-pyrrolo[2,3-c] pyridin-7-one], for which the half-life at 1 uM in data set [1] was greater than 1 h. Also, the half-maximal inhibitory concentration (IC50) in data set [2] is greater than 1 µM. The “Mouse Plasma Stability % remaining at 120 minutes” value (from here on “Mouse Plasma Stability % remaining”) in data set [3] was 84%. In addition, in data set [4], the “Fold selectivity BRD4 BD1/BD2” value is recorded as “xxx (Fold >200)” and the half-maximal inhibitory concentration (IC50) is no more than 0.05 µM.

As to `Cc1cccc(C)c1Oc1cn(C)c(=O)cc1-c1cn(C)c(=O)c2[nH]c(-c3cnn(C(C)C)c3)cc12` [Example 11, 4-(5-(2,6-dimethylphenoxy)-1-methyl-2-oxo-1,2-dihydropyridin-4-yl)-2-(1-isopropyl-1H-pyrazol-4-yl)-6-methyl-1,6-dihydro-7H-pyrrolo[2,3-c] pyridin-7-one], the half-life at 1 uM in data set [1] is greater than 1 h. The IC50 in data set [2] was 0.05 to 0.5 µM; in data set [4], no more than 0.05 µM. Further, the “Mouse Plasma Stability % remaining” value in data set [3] was found to be 98%. The “Fold selectivity BRD4 BD1/BD2” value in data set [4] is “xx (Fold >50 and ≤200)”.

`Cc1cccc(C)c1Oc1cn(C)c(=O)cc1-c1cn(C)c(=O)c2[nH]c(-c3ccccc3F)cc12` [Example 14, 4-(5-(2,6-dimethylphenoxy)-1-methyl-2-oxo-1,2-dihydropyridin-4-yl)-2-(2-fluorophenyl)-6-methyl-1,6-dihydro-7H-pyrrolo[2,3-c] pyridin-7-one]: the half-life at 1 uM in data set [1] is greater than 1 h. The IC50 in data set [2] is greater than 1 µM. Further, the “Mouse Plasma Stability % remaining” value in data set [3] was 99%. In data set [4], the “Fold selectivity BRD4 BD1/BD2” value is given as “xxx (Fold >200)” and the IC50 is no more than 0.05 µM.

`Cc1cc(-c2cc3c(-c4cc(=O)n(C)cc4Oc4c(C)cccc4C)cn(C)c(=O)c3[nH]2)cc(C)n1` [Example 17, 4-(5-(2,6-dimethylphenoxy)-1-methyl-2-oxo-1,2-dihydropyridin-4-yl)-2-(2,6-dimethylpyridin-4-yl)-6-methyl-1,6-dihydro-7H-pyrrolo[2,3-c] pyridin-7-one.TFA]: the half-life at 1 uM in data set [1] was greater than 1 h. Besides, in data set [2], the IC50 is greater than 1 µM. Also, in data set [3], the “Mouse Plasma Stability % remaining” value came out at 42%. For the same molecule, in data set [4], the “Fold selectivity BRD4 BD1/BD2” value was “xxx (Fold >200)” and the IC50 is no more than 0.05 µM.

`Cc1cccc(C)c1Oc1cn(C)c(=O)cc1-c1cn(C)c(=O)c2[nH]c(-c3ccc(=O)n(C)c3)cc12` [Example 51, 5-(2,6-dimethylphenoxy)-1-methyl-4-[6-methyl-2-(1-methyl-6-oxopyridin-3-yl)-7-oxo-1H-pyrrolo[2,3-c]pyridin-4-yl]pyridin-2-one]: in data set [5] (5 mg/kg, Casette), the highest level (Cmax) was 24.4 ng/mL and the bioavailability turned out to be 6.83%. In addition, the IC50 in data set [2] was greater than 1 µM. Besides, in data set [4], the “Fold selectivity BRD4 BD1/BD2” value was “xx (Fold >50 and ≤200)”; the half-inhibitory concentration (IC50) fell in the range of 0.05 to 0.2 µM.

In data set [5] (30 mg/kg, Individual), `Cc1cc(-c2cc3c(-c4cc(=O)n(C5CC5)cc4Oc4c(C)cccc4C)cn(C)c(=O)c3[nH]2)cc(C)n1` [Example 59, 1-cyclopropyl-5-(2,6-dimethylphenoxy)-4-[2-(2,6-dimethylpyridin-4-yl)-6-methyl-7-oxo-1H-pyrrolo[2,3-c]pyridin-4-yl]pyridin-2-one] gave a Cmax of 5460 ng/mL and a bioavailability of 100%. In addition, the IC50 in data set [2] was greater than 1 µM. In addition, in data set [4], the “Fold selectivity BRD4 BD1/BD2” value is reported as “xxx (Fold >200)” and the IC50 is no more than 0.05 µM.

`Cc1cc(-c2cc3c(-c4cc(=O)n(C)cc4-c4ccccc4)cn(C)c(=O)c3[nH]2)n(C)n1` [Example 60, 2-(1,3-dimethyl-1H-pyrazol-5-yl)-6-methyl-4-(1-methyl-2-oxo-5-phenyl-1,2-dihydropyridin-4-yl)-1,6-dihydro-7H-pyrrolo[2,3-c] pyridin-7-one]: in data set [5] (5 mg/kg, Casette), the Cmax is 631 ng/mL and the bioavailability was 59.9%. In data set [2], this molecule gave an IC50 greater than 1 µM. In data set [4], the “Fold selectivity BRD4 BD1/BD2” value is on record as “xxx (Fold >200)” and the IC50 is no more than 0.05 µM.

In data set [5] (5 mg/kg, Casette), `CC(C)n1cc(-c2cc3c(-c4cc(=O)n(C)cc4-c4ccccc4)cn(C)c(=O)c3[nH]2)cn1` [Example 61, 4-[2-(1-isopropylpyrazol-4-yl)-6-methyl-7-oxo-1H-pyrrolo[2,3-c]pyridin-4-yl]-1-methyl-5-phenylpyridin-2-one] displayed a Cmax of 622 ng/mL and a bioavailability of 51.2%. This molecule also came in with an IC50 in data set [2] greater than 1 µM. Besides, in data set [4], the “Fold selectivity BRD4 BD1/BD2” value is recorded as “xxx (Fold >200)” and the IC50 was no more than 0.05 µM.

As to `Cc1cc(-c2cc3c(-c4cc(=O)n(C)cc4-c4ccccc4)cn(C)c(=O)c3[nH]2)cc(C)n1` [Example 62, 4-[2-(2,6-dimethylpyridin-4-yl)-6-methyl-7-oxo-1H-pyrrolo[2,3-c]pyridin-4-yl]-1-methyl-5-phenylpyridin-2-one], in data set [5] (5 mg/kg, Casette), the concentration peaked (Cmax) at 1290 ng/mL and the bioavailability was 88.7%. The molecule further registered an IC50 in data set [2] of 0.05 to 0.5 µM. Also, in data set [4], the “Fold selectivity BRD4 BD1/BD2” value was “xxx (Fold >200)” and the IC50 is no more than 0.05 µM.

In data set [5] (5 mg/kg, Casette), `Cn1cc(-c2ccccc2)c(-c2cn(C)c(=O)c3[nH]c(-c4ccccc4)cc23)cc1=O` [Example 63, 1-methyl-4-{6-methyl-7-oxo-2-phenyl-1H-pyrrolo[2,3-c]pyridin-4-yl}-5-phenylpyridin-2-one] gave a Cmax of 1590 ng/mL and a bioavailability of 86.5%. Moreover, the IC50 in data set [2] is greater than 1 µM. Further, in data set [4], the “Fold selectivity BRD4 BD1/BD2” value is “xxx (Fold >200)” and the IC50 is no more than 0.05 µM.

For the molecule `Cc1cccc(C)c1Oc1cn(C)c(=O)cc1-c1cn(C)c(=O)c2[nH]c(-c3cn(C4COC4)nc3C)cc12` [Example 64, 4-(5-(2,6-dimethylphenoxy)-1-methyl-2-oxo-1,2-dihydropyridin-4-yl)-6-methyl-2-(3-methyl-1-(oxetan-3-yl)-1H-pyrazol-4-yl)-1,6-dihydro-7H-pyrrolo[2,3-c]pyridin-7-one], in data set [5] (30 mg/kg, Individual), the highest level (Cmax) was 1010 ng/mL and the bioavailability stood at 12.5%. The half-maximal inhibitory concentration (IC50) in data set [2] lay in the range of 0.5 to 1 µM. Moreover, in data set [4], the “Fold selectivity BRD4 BD1/BD2” value is “xx (Fold >50 and ≤200)”; the IC50 is no more than 0.05 µM.

For the origin of these results see patent US20240308998A1, “PYRROLOPYRIDONE DERIVATIVES USEFUL IN THE TREATMENT OF CANCER” (Tay Therapeutics Limited, priority 2021, published 2024).
